Results on two molecules are retold here after patent publication US20100179153A1, “Bicyclic S1P Receptor Modulators” (priority 2007, published 2010).

SMILES strings stand for the structures.

Common to all, as to assay type: biochemical
One test has as its target T1, human S1P1 receptor (Homo sapiens, UniProt P21453).
T1 construct: expressed in transfected cells; host or cells: CHO-K1 (ATCC CCL 61); RH7777 may also be used
Kind of test: 35S-GTPγS binding assay (SPA), S1P1. Conditions: membrane protein from transfected CHO cells. As for the experimental part: (§1) Test 1: ^355-GTPγS Binding Assay
(§2) The S1P receptor modulating properties of an agent of the invention are tested on the human S1P1, S1P2, S1P3, S1P4 and S1P5, respectively, receptor subtypes. The functional receptor activation is assessed by quantifying the compound-induced ^35S-GTPγS binding to membrane protein prepared from transfected heterologous cells stably expressing the appropriate S1P receptor subtype. CHO cells (CHO-K1, Chinese hamster, ATCC no. CCL 61) are used [RH7777 cells (rat Morris hepatoma, ATCC no. CRL 1601) may also be used]. The membrane protein is prepared from wild-type cells and from different cell clones expressing the appropriate S1P receptor subtype. The assay technology used is SPA (scintillation proximity based assay). […] The luminescence of SPA beads triggered by membrane bound ^35S-GTPγS is quantified with a TOPcount plate reader (Packard). To evaluate the S1P receptor modulation, the stimulation (in %) compared to the baseline is calculated as the binding in the presence of the compound divided by the binding in the absence of a ligand, multiplied by 100. […] The selectivity of the compound towards the S1P receptor subtypes is determined by measuring for each of the different S1P receptor subtypes the level of ^35S-GTPγS binding in the presence of the compound using each of the different membrane proteins.
For orientation: GTPγS resists hydrolysis and so accumulates on activated G proteins.

The target in the next test is T2, human S1P4 receptor (Homo sapiens, UniProt O95977).
T2 construct: expressed in transfected cells; host or cells: CHO-K1 (ATCC CCL 61); RH7777 may also be used
T2 sequence (O95977 1-384): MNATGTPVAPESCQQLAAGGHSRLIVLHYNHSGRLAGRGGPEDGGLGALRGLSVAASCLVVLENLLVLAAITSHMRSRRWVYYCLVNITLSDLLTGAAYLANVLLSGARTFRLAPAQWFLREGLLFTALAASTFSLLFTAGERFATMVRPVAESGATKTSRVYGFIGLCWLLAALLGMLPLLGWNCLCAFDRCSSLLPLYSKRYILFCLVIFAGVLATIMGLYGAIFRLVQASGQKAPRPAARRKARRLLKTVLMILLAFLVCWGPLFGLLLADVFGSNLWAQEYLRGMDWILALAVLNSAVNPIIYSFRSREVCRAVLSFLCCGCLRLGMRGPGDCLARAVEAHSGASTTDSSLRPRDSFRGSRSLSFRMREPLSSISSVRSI
Kind of test: 35S-GTPγS binding assay (SPA), S1P4. Conditions: membrane protein from transfected CHO cells. The procedure: as §1, §2

The target of the next test is T3, human S1P5 receptor (Homo sapiens, UniProt Q9H228).
T3 construct: expressed in transfected cells; host or cells: CHO-K1 (ATCC CCL 61); RH7777 may also be used
Kind of test: 35S-GTPγS binding assay (SPA), S1P5. Conditions: membrane protein from transfected CHO cells; for EC50: read-out: EC50 for receptor subtype S1P5. The procedure:
as §1
The S1P receptor modulating properties of an agent of the invention are tested on the human S1P1, S1P2, S1P3, S1P4 and S1P5, respectively, receptor subtypes. The functional receptor activation is assessed by quantifying the compound-induced ^35S-GTPγS binding to membrane protein prepared from transfected heterologous cells stably expressing the appropriate S1P receptor subtype. CHO cells (CHO-K1, Chinese hamster, ATCC no. CCL 61) are used [RH7777 cells (rat Morris hepatoma, ATCC no. CRL 1601) may also be used]. The membrane protein is prepared from wild-type cells and from different cell clones expressing the appropriate S1P receptor subtype. The assay technology used is SPA (scintillation proximity based assay). A DMSO solution of the test compound is serially diluted and added to SPA-bead (Amersham-Pharmacia) immobilised S1P receptor subtype expressing membrane protein (1 to 20 μg/well) in the presence of 50 mM HEPES, 100 mM NaCl, 10 mM MgCl2, 10 μM GDP, 0.1% fat free BSA and 0.2 nM ^35S-GTPγS (1200 Ci/mmol) (pH 7.4). After incubation in 96 well microtiter plates at room temperature for 120 minutes, the unbound ^35S-GTPγS is separated by centrifugation. The luminescence of SPA beads triggered by membrane bound ^35S-GTPγS is quantified with a TOPcount plate reader (Packard). To evaluate the S1P receptor modulation, the stimulation (in %) compared to the baseline is calculated as the binding in the presence of the compound divided by the binding in the absence of a ligand, multiplied by 100. Dose response curves are plotted using a non-linear regression curve fitting program, and the EC50 is defined as the concentration of the compound required to give 50% of its maximum stimulation. Preferably, the EC50 value of an agent of the invention in this test is 10′000 nM or less. The selectivity of the compound towards the S1P receptor subtypes is determined by measuring for each of the different S1P receptor subtypes the level of ^35S-GTPγS binding in the presence of the compound using each of the different membrane proteins.

T3 sequence (Q9H228 whole entry): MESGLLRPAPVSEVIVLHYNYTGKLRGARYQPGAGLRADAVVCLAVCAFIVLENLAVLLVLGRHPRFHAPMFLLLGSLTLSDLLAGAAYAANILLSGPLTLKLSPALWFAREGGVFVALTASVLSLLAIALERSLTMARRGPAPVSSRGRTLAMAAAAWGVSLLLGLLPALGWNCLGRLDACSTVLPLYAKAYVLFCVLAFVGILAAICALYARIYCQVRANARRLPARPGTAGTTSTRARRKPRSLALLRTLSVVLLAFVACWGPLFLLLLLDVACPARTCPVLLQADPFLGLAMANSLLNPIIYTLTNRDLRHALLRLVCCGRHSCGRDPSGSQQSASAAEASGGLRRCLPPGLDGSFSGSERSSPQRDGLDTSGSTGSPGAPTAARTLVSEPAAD
T1 sequence (P21453 whole entry): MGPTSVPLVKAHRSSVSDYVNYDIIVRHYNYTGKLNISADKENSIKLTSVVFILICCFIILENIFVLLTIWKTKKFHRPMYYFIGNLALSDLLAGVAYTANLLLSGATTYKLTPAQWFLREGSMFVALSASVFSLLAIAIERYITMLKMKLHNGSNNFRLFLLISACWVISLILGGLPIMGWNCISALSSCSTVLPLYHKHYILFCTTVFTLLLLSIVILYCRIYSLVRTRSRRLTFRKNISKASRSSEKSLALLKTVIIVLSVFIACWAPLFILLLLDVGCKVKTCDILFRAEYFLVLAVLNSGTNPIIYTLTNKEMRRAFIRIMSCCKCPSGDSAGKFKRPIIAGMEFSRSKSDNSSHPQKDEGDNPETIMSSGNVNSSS

As for `Cc1cc(F)cc(C)c1Nc1cccc2c(C)n[nH]c(=O)c12` [Example 4, 8-(4-Fluoro-2,6-dimethyl-phenylamino)-4-methyl-2H-phthalazin-1-one], at human S1P1 receptor, the “efficacy at S1P1” value worked out at 58%. Moreover, the “efficacy at S1P4” value at human S1P4 receptor stood at 74%. Besides, at human S1P4 receptor (read-out: EC50 for receptor subtype S1P4), the concentration giving a half-maximal response (EC50) worked out at 929 nM. Also, on human S1P5 receptor, the “efficacy at S1P5” value was 80% and the 50% effective concentration (EC50) stood at 117 nM.

On to `CCc1cc(F)cc(CC)c1Nc1cccc2c(C)n[nH]c(=O)c12` [Example 8, 8-(2,6-Diethyl-4-fluoro-phenylamino)-4-methyl-2H-phthalazin-1-one], for which the “efficacy at S1P1” value on human S1P1 receptor is listed as 73%. Moreover, on human S1P5 receptor, the “efficacy at S1P5” value is on record as 81% and the concentration giving a half-maximal response (EC50) came to 27 nM.

For orientation: EC50 means the concentration at which the effect is half-maximal.
